In patent US10973810B2, “Methods for the treatment of neurological disorders” (Yumanity Therapeutics, Inc., priority 2017, dated 2021):

Assays:
Assay type in all cases: cell-based
human SCD1 = biological target: T1, human SCD1 (Homo sapiens, UniProt O00767); assay: Growth of humanized yeast surviving solely on human SCD1; conditions: growth inhibition
T1 construct: host or cells: S. cerevisiae ole1Δ strain (W303 pdr1Δ pdr3Δ background), plasmid pRS316 with TDH3 promoter and CYC1 terminator
T1 sequence (O00767 1-359): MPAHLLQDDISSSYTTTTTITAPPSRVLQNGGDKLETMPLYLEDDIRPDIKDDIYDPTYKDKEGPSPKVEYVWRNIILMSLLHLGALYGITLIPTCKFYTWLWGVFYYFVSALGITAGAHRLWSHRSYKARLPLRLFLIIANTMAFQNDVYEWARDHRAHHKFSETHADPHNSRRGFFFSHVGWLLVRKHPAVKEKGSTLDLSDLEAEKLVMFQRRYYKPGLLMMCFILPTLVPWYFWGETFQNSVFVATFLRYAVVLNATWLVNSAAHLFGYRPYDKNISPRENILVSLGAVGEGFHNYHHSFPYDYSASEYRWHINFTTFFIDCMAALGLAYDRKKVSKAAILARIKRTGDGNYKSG
Source text: The coding sequence of yeast OLE1 was also cloned into this plasmid). These clones were then transformed into the ole1d strain and plated on CSM-Ura media (CSM lacking uracil) with 2% glucose (w/v) and independent colonies were isolated and amplified.
(§1) For experiments using a plasmid-borne copy of Ole1, SCD1, or SCD5 (FIGS. 3B, 6, and 7), media lacking uracil (SX-Ura, where X is glucose, raffinose, or galactose), was used for all steps of the compound profiling protocol to ensure its maintenance throughout the assay.
After yeast delivery, assay plates were incubated under humidified conditions at 30° C. for 24 to 40 h. ApoE4 rescue experiments were stopped at 24 h, aSyn experiments at 40 h, Ole1 at 24 h, and SCD1/SCD5 at 40 h. The growth of yeast was monitored by reading the OD600 of each well using a microplate reader (Perkin Elmer EnVision™).

[1] = test system: alpha-synuclein (A53T) transfected rat cortical neurons; assay: Neurite degeneration assay in transfected rat cortical neurons
Description: Rat primary cortical neurons cultured in 96-well plates (Greiner Bio-One) were co-transfected with a fluorescence reporter plasmid (encoding mKate2) and empty or alpha-synuclein-A53T overexpression plasmids by lipofection at 5-6 div (days in vitro). LIPOFECTAMINE® 2000 transfection reagent (Thermo Fisher) (0.5 μl/well) was diluted in NEUROBASAL® media (Thermo Fisher) and incubated for 5-10 min. The LIPOFECTAMINE®/NEUROBASAL® mixture was then added dropwise to a plasmid cocktail diluted in NEUROBASAL® media, and incubated for approximately 40 min. During this time, conditioned media on the neurons was replaced with media containing 1× kynurenic Acid (Sigma-Aldrich) in NEUROBASAL® media (NBKY). LIPOFECTAMINE®/DNA complex solutions were subsequently added dropwise to neurons in the NBKY media in the 96-well plate. Lipofection was carried out for 30-40 min in a standard cell culture incubator (37° C., 5% CO2). Neurons were then washed with NEUROBASAL® media, and 50% conditioned/50% fresh NEUROBASAL® media containing B-27 supplement and GlutaMax™ (Thermo Fisher) (NBM) was applied to the cultures.
Transfected rat cortical neuron cultures were treated with DMSO or CAY10566 compound 4-6 h post-transfection. […] Neurite lengths of transfected neurons were tracked by an RFP reporter, mKate2, and measured by NeuroTrack™ Software Module (Essen Bioscience). […]

yeast OLE1 = biological target: T2, yeast OLE1 (Saccharomyces cerevisiae, UniProt P21147, L450T/T449L); assay: Growth of yeast surviving solely on yeast OLE1; conditions: 24 h
T2 construct: expressed in transfected cells; host or cells: S. cerevisiae ole1Δ strain (W303 pdr1Δ pdr3Δ background), plasmid pRS316 with TDH3 promoter and CYC1 terminator
T2 sequence (P21147 whole entry T449L/L450T): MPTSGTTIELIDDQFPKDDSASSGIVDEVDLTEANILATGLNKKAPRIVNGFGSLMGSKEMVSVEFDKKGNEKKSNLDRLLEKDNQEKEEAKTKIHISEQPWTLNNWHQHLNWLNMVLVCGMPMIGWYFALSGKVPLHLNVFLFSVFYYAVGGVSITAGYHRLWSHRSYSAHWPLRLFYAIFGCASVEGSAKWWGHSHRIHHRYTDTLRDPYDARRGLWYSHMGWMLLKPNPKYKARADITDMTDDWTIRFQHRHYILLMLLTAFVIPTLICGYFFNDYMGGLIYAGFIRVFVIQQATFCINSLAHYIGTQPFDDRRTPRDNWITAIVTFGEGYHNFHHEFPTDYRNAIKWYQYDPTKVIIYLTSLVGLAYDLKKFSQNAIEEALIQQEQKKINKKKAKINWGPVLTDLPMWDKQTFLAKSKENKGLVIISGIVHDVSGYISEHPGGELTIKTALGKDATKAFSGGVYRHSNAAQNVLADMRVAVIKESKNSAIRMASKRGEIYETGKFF
Source text: To generate yeast strains expressing SCD1 or SCD5 as the sole desaturase, the human SCD1 and SCD5 genes were cloned from cDNAs (Harvard PlasmID database Clone ID HsCD00340237 for SCD1 and HsCD00342695 for SCD5) into yeast plasmid pRS316 (ATCC 77145) between the yeast TDH3 promoter and the CYC1 terminator. The coding sequence of yeast OLE1 was also cloned into this plasmid). These clones were then transformed into the ole1d strain and plated on CSM-Ura media (CSM lacking uracil) with 2% glucose (w/v) and independent colonies were isolated and amplified.
as §1
After yeast delivery, assay plates were incubated under humidified conditions at 30° C. for 24 to 40 h. ApoE4 rescue experiments were stopped at 24 h, aSyn experiments at 40 h, Ole1 at 24 h, and SCD1/SCD5 at 40 h. The growth of yeast was monitored by reading the OD600 of each well using a microplate reader (Perkin Elmer EnVision™). For model rescue experiments, raw data were processed by background subtracting and calculating a fold-change relative to DMSO control [(EXP-0.035)/(DMSO-0.035)—where 0.035 is the OD600 contributed by an empty well containing 30 μL of media alone]. For growth inhibition of wild-type cells, raw data were processed by background subtracting and converting values to a percent of the nontreated condition for that strain [(EXP-0.035)/(DMSO-0.035)×100%].

For `Cc1nnc(-c2ccc(N3CCC(Oc4cc(F)ccc4Cl)CC3)nn2)o1` [CAY10566], the “half-maximal inhibitory concentration (IC50), SCD1 humanized strain” value (human SCD1) was “low nanomolar”, the “neurite degeneration at highest concentrations” value ([1]; 10 nM and 3 nM, overlapping with control cultures not transfected with alpha-synuclein A53T) was “complete rescue” and the neurite degeneration ([1]; titration from 10 nM down to 10 pM, tracked every 6 h for 7 d, relative to DMSO) was “concentration-dependent decrease in neurite degeneration”. The “growth of yeast strain expressing Ole1 (percent of DMSO-treated condition)” value (yeast OLE1) was “resistant”.
